Test system: human fibroblasts
Assay: Direct induction from human fibroblasts to cardiomyocytes (microscopic observation of morphology and pulsation)
Type: cell-based
Experimental: The human fibroblasts used as the material were purchased from DS Pharma Biomedical Co., Ltd. The fibroblasts are derived from human skin. The human fibroblasts were seeded in 8×10^4 portions in 35-mm dishes coated with gelatin (Cat #: 190-15805, manufactured by Wako Pure Chemical Co.) and cultured in DMEM high glucose medium (manufactured by Gibco) supplemented with 10% fetal bovine serum (Fetal bovine serum; FBS), 100 U/mL penicillin, and 100 μg/mL streptomycin for 2 days at 37° C. under 5% CO2 conditions (80-90% or more confluent). DMEM denotes Dulbecco's Modified Eagle Medium (Dulbecco's Modified Eagle Medium). The medium of dishes of the human fibroblasts described above was replaced with a medium of DMEM (High Glucose with L-Glutamine Phenol Red, and Sodium Pyruvate) (manufactured by Gibco) having 20% fetal bovine serum (FBS), 2% B27-supplement (manufactured by Gibco), 1% N2 (manufactured by Gibco), non-essential amino acids (NEAA: manufactured by Gibco), β-mercaptoethanol (manufactured by Nacalai Tesque; final concentration of 0.1 mmol/L), 2-phospho ascorbic acid (manufactured by Sigma-Aldrich; final concentration of 50 μg/mL), 100 U/mL penicillin, 100 μg/mL streptomycin, and low molecular weight compounds described below. […] This was assessed by observing cell clumps that contract spontaneously and periodically under a microscope. […]

O=C(NOC[C@H](O)CO)c1ccc(F)c(F)c1Nc1ccc(I)cc1F [Ex. A, PD0325901]
appearance of spontaneously contracting (myocardial) cell clumps (Tables 1-2, FIGS. 1-6, culture day 7 to 17): low in frequency
Induction efficiency (Morphology, pulsation) (human skin fibroblasts cultured with the compound combination, grades ⊚, ◯, Δ, X not defined): Δ
